Test results as given in patent US7553642B2, “Branched neutral amino acid transporters acting as single molecule” (Human Cell Systems, Inc., priority 2003, dated 2009).
“Also recorded” adds a separate entry of the source. Where two headings read alike, the source gives them in different places.

Columns and labels:
Assay type in all cases: cell-based
human LAT3 [1] = target: T1, human LAT3 (Homo sapiens, UniProt O75387); assay: Inhibition of 14C-leucine uptake by Xenopus oocytes injected with human LAT3 cRNA
T1 construct: An expression plasmid vector pSPORT1 containing cDNA of human LAT3 was cleaved by a restriction enzyme NotI, and cRNA; expressed in transfected cells; host or cells: Xenopus laevis oocytes injected with cRNA
T1 sequence (O75387 1-559): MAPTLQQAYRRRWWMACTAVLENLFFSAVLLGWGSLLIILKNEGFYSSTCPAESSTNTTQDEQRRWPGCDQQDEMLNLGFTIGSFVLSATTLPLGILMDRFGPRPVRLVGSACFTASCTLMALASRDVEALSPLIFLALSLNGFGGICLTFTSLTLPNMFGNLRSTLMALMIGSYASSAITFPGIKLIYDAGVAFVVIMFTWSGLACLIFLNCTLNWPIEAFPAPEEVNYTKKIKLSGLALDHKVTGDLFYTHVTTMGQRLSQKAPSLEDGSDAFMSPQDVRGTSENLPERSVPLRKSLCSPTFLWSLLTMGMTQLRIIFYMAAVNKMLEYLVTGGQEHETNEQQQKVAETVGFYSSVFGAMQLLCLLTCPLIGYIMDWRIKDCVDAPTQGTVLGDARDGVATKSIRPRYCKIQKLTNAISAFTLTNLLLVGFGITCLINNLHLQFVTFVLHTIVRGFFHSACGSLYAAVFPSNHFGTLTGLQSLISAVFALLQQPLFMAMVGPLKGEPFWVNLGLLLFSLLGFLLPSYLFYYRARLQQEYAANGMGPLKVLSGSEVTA

mouse LAT4 [2] = target: T2, mouse LAT4 (Mus musculus, UniProt Q8CGA3, K402E/P237S); assay: Inhibition of 14C-leucine uptake by oocytes injected with mouse LAT4 cRNA; settings: 14C-leucine 100 μM, 10 mM unlabeled compound, Na+-free uptake solution, Xenopus oocytes
T2 construct: An expression plasmid vector pcDNA 3.1(+) containing cDNA of mouse LAT4 was cleaved by a restriction enzyme XbaI; expressed in transfected cells; host or cells: Xenopus laevis oocytes injected with cRNA (from pcDNA3.1(+), IMAGE clone 2235970)
Method: In this regard, uptake of ^14C-leucine (100 μM) into the oocytes was measured in the presence or the absence of 10 mM of various compounds (unlabeled) in the Na^+-free uptake solution.

human LAT3 [3] = target: T1, human LAT3; assay: Uptake of radiolabeled amino acids by Xenopus oocytes injected with human LAT3 cRNA; settings: 14C-labeled substrate in place of 14C-leucine, Na+-free uptake solution, 10 minutes
Method: The substrate uptake by the injected oocytes using leucine as a substrate was carried out according to the method described by Kanai et al. (Kanai and Hediger, Nature, Vol. 360, 467-471 (1992)), as follows. The oocytes was cultured for 30 minutes in the Na^+-free uptake solution (100 mM of choline chloride, 2 mM of potassium chloride, 1.8 mM of calcium chloride, 1 mM of magnesium chloride, 5 mM of HEPES, pH 7.4) using ^14C-leucine (100 μM) as a substrate, and uptake rate of the substrate was measured by counting radioactivity in the cell.
The oocytes was injected with 25 ng of human LAT3 gene cRNA to be expressed thereby, and cultured for 3 days.
The experiment of the leucine uptake was carried out as follows according to the above described method in Example 1 (1). That is, the oocytes injected with the cRNA of the human LAT3 gene or water as a control were cultured for 10 minutes in Na^+-free uptake solution containing ^14C-leucine (100 μM) (refer to Example 1 (1)), and measured uptake of radioactivity into the cells.
The leucine uptake was conducted at the leucin concentrations of 1, 3, 10, 30, 60, 100, 200, 400, 1000, 2000 and 3000 μM using the oocytes injected with cRNA of the human LAT3 gene according to the above-described method in Example 3 (1). […] In addition, it was clarified that the leucine transport mediated by LAT3 is composed of high affinity component and low affinity component (FIG. 6, inserted figure).
An uptake experiment of various amino acids and amino acid analogs was carried out using the oocytes injected with cRNA of the human LAT3 gene according to the above-described method in Example 3 (1), provided that various radiolabeled amino acids were utilized in place of the ^14C-leucine.

mouse LAT4 [4] = target: T2, mouse LAT4; assay: Uptake of radiolabeled amino acids by Xenopus oocytes injected with mouse LAT4 cRNA; settings: 14C-labeled substrate in place of 14C-leucine
Method: The oocytes was injected with 25 ng of cRNA of the mouse LAT4 gene to be expressed thereby, and cultured for 3 days.
An experiment of leucine uptake was carried out as follows according to the above-described method in Example 3 (1). That is, the oocytes injected with cRNA of the mouse LAT4 gene or water as a control were cultured for 10 minutes in the Na^+-free uptake solution containing […] (100 μM) (refer to Example 3 (1)), and measured the uptake of radioactivity into the cells.
The leucine uptake was conducted at the leucin concentrations of 0.01, 0.03, 0.1, 0.3, 1, 3 and 10 mM, using the oocytes injected with cRNA of the mouse LAT4 gene according to the above-described method in Example 3 (1). […] In addition, it was clarified that the leucine transport mediated by LAT4 is composed of a high affinity component and a low affinity component, just like the leucin uptake mediated by LAT3.
An uptake experiment of various amino acids and amino acid analogs was carried out using the oocytes injected with cRNA of the mouse LAT4 gene according to the above-described method in Example 3 (1). In this regard, in place of ^14C-leucine, various radiolabeled amino acids were utilized.

LAT1 = assay: Influence of N-ethylmaleimide on leucine uptake mediated by LAT1; settings: 5 mM; 14C-L-leucine 100 μM, 10 minutes
human LAT3 [5] = target: T1, human LAT3; assay: Influence of N-ethylmaleimide on leucine uptake by oocytes expressing human LAT3; settings: pretreatment with 5 mM for 15 minutes; 14C-L-leucine 100 μM, 10 minutes
Method: Each of the oocytes injected with cRNA of the human LAT3 gene, injected with cRNA of the human LAT3 gene and cRNA of 4F2hc gene, or injected with water as a control was cultured for 10 minutes in the Na^+-free uptake solution containing ^14C-L-leucine (100 μM) (refer to Example 3 (2)), and uptake of radioactivity into the oocytes was measured according to the method described in Example 3 (1). In this regard, influences of pretreatment with 5 mM of N-ethylmaleimide for 15 minutes, and the presence or absence of 5 mM of N-ethylmaleimide in the uptake solution on the ^14C-leucine uptake were investigated.

[6] = 14C-leucine 100 μM, 10 mM unlabeled compound, Na+-free uptake solution, 10 minutes, Xenopus oocytes

T2 sequence (Q8CGA3 whole entry P237S/K402E): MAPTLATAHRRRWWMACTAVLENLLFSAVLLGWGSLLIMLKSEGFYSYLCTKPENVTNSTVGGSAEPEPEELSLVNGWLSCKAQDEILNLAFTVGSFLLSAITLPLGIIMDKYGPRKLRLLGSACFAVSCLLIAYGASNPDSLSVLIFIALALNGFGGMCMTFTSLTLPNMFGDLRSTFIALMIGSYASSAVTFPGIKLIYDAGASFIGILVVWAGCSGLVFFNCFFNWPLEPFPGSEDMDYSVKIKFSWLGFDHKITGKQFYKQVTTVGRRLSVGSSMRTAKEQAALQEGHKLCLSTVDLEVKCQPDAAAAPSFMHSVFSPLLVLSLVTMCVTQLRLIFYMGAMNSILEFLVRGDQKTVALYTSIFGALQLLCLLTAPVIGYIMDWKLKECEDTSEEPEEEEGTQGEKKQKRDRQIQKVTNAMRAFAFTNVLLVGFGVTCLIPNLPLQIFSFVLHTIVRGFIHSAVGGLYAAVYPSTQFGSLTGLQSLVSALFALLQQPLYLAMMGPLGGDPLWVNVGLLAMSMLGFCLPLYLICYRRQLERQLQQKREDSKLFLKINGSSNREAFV

inhibitory effect on the LAT3 mediated 14C-leucine uptake (human LAT3 [1]; [6])	inhibitory effect on the LAT4 mediated 14C-leucine uptake (mouse LAT4 [2])	SMILES	also measured
strong inhibition	strong inhibition	NC1(C(=O)O)CC2CCC1C2 (centres unmarked) [BCH, 2-aminobicyclo-(2,2,1)-heptane-2-carboxylic acid]	–
relatively strong inhibitory effect	relatively strong inhibitory effect	CC(C)C[C@@H](N)C(=O)O [D-leucine]	uptake of radiolabeled substrate into oocytes expressing human LAT3 (human LAT3 [3]): significant uptake; uptake of radiolabeled substrate into oocytes expressing mouse LAT4 (mouse LAT4 [4]): significant uptake
significant inhibitory activity	–	CC(C)CCN [Isopentylamine, isopentylamine]	–
strong cis-inhibitory effect	strong cis-inhibitory effect	CC[C@H](C)[C@H](N)C(=O)O [L-isoleucine]	uptake of radiolabeled substrate into oocytes expressing human LAT3 (human LAT3 [3]): a large amount of uptake; uptake of radiolabeled substrate into oocytes expressing mouse LAT4 (mouse LAT4 [4]): a large amount of uptake
strong cis-inhibitory effect	strong cis-inhibitory effect	N[C@@H](Cc1ccccc1)C(=O)O [L-phenylalanine]	uptake of radiolabeled substrate into oocytes expressing human LAT3 (human LAT3 [3]): a large amount of uptake; uptake of radiolabeled substrate into oocytes expressing mouse LAT4 (mouse LAT4 [4]): a large amount of uptake
did not affect	did not affect	O=C(O)[C@@H]1CCCN1 [L-proline]	uptake of radiolabeled substrate into oocytes expressing human LAT3 (human LAT3 [3]): small but significant uptake
strong cis-inhibitory effect	strong cis-inhibitory effect	CC(C)[C@H](N)C(=O)O [L-valine]	uptake of radiolabeled substrate into oocytes expressing human LAT3 (human LAT3 [3]): a large amount of uptake; uptake of radiolabeled substrate into oocytes expressing mouse LAT4 (mouse LAT4 [4]): a large amount of uptake
significant inhibitory activity	–	CC(=O)N[C@@H](CC(C)C)C(=O)O [N-acetyl-leucine, N-acetyl-L-leucine]	–
–	–	CCN1C(=O)C=CC1=O [N-ethylmaleimide]	effect on 14C-L-leucine uptake mediated by LAT1 (LAT1): did not affect; effect on 14C-L-leucine uptake mediated by human LAT3 (human LAT3 [5]): completely abolished; also recorded: inhibited
did not affect	did not affect	N[C@@H](CC(=O)O)C(=O)O [aspartic acid]	–
strong inhibitory effect	–	COc1ccc2c(c1)c(CC(=O)O)c(C)n2C(=O)c1ccc(Cl)cc1 [indomethacin]	–
significant inhibitory activity	–	CC(C)CN [isobutylamine]	–
significant inhibitory activity	–	COC(=O)[C@@H](N)CC(C)C [leucine methylester, L-leucine-methylester]	–
strongly inhibited	–	CC(C)C[C@H](N)CO [leucinol, L-leucinol]	–
weak but significant inhibitory effects	–	CCCN(CCC)S(=O)(=O)c1ccc(C(=O)O)cc1 [probenecid]	–
weak but significant inhibitory effects	–	O=C(O)c1ccccc1O [salicylic acid]	–
relatively strong inhibitory effects	–	CC(C)[C@H](N)CO [valinol, L-valinol]	–

SMILES	inhibitory effect on the LAT3 mediated 14C-leucine uptake (human LAT3 [1]; [6])	inhibitory effect on the LAT4 mediated 14C-leucine uptake (mouse LAT4 [2])	also measured
CC(C)CC(C)N (centres unmarked) [1,3-dimethyl-n-butylamine]	significant inhibitory activity	–	–
N[C@H](Cc1c[nH]cn1)C(=O)O [D-histidine]	–	relatively strong inhibitory effect	–
CSCC[C@@H](N)C(=O)O [D-methionine]	–	relatively strong inhibitory effect	–
CSCC[C@H](N)C(=O)O [L-methionine]	–	strong cis-inhibitory effect	uptake of radiolabeled substrate into oocytes expressing human LAT3 (human LAT3 [3]): small but significant uptake; uptake of radiolabeled substrate into oocytes expressing mouse LAT4 (mouse LAT4 [4]): a large amount of uptake; inhibitory effect on the LAT3 mediated 14C-leucine uptake (human LAT3 [1]): strong cis-inhibitory effect
N=C(N)NCCC[C@H](N)C(=O)O [arginine]	did not affect	did not affect	–
N[C@@H](CCC(=O)O)C(=O)O [glutamic acid]	did not affect	did not affect	–
NCCCC[C@H](N)C(=O)O [lysine]	did not affect	did not affect	–
C[C@@H]1Cc2c(Cl)cc(C(=O)N[C@@H](Cc3ccccc3)C(=O)O)c(O)c2C(=O)O1 [ochratoxin A]	strong inhibitory effect; also recorded: strongly inhibited	–	–
N[C@H](CO)Cc1ccccc1 [phenylalaninol, L-phenylalaninol]	relatively strong inhibitory effects; also recorded: strongly inhibited	–	–
NCCc1ccccc1 [phenylethylamine, 2-phenylethylamine]	significant inhibitory activity	–	–
